Read-outs that look alike come from different tables or passages of the source. Where only a bound is given, the exact number is not on record here.

One data set concerns HaCaT cells. In words: Cell viability, sulforhodamine B (SRB) assay, non-malignant cells. The note with it: Homo sapiens. The format is cell-based. On the procedure: (§1) SW480 (colon adenocarcinoma) and SW620 (derived metastatic) malignant cell lines, and the non-malignant lines HaCaT (human keratinocytes) and CHO-K1 (Chinese Hamster Ovary), were obtained from the European Collection of Authenticated Cell Cultures (ECACC, Porton Down, Salisbury, UK). The cells were maintained in Dulbecco’s Modified Eagle’s Medium (DMEM), supplemented with 10% equine serum previously inactivated at 56 °C, 1% penicillin/streptomycin, and 1% non-essential amino acids, and incubated at 37 °C in an atmosphere with 5% CO2. To carry out the experiments, the serum was diluted to 3% and additionally supplemented with […] insulin, […] transferrin, and 5 ng/mL selenium. Cells were used for experimentation when they reached 80–90% confluence, using a 1X trypsin enzymatic disintegration method. To avoid contamination by Mycoplasma spp., cell cultures were periodically analyzed by polymerase chain reaction (PCR).
(§2) Cell viability was evaluated with a sulforhodamine B (SRB) assay. This technique provides an index of protein contents in living and adherent cells, whose optical density can be related to cell concentration. Initially, 20,000 cells were seeded per well in 96-well culture plates. An initial adherence period of 24 h was performed at 37 °C, 5% CO2, and after this, the medium was replaced by another that contained the hybrid compounds in different concentrations. Then, the cells were left incubating for 24 and 48 h under the same conditions previously described. After the respective incubation times, the cells were fixed with trichloroacetic acid (50% v/v) for 1 h at 4 °C and stained with 0.4% (p/v) of SRB. Subsequently, washings with 1% acetic acid were carried out to eliminate possible nonspecific bindings, and after solubilization with 10 mM Tris-base, the absorbance was read at 492 nm in a microplate reader (Mindray MR-96A). All the experiments were carried out in triplicate.
In general terms: The SRB assay estimates cell density from bound dye.

For data set [1], the system named is SW620 cells. Put plainly: Cell death induction (Annexin-V/PI, flow cytometry). It counts as cell-based, human. As to conditions: SW620, treated with IC50, 48 h. The method, then: For this method, 250,000 cells/well were initially seeded in 6-well culture plates during a 24 h adherence period at 37 °C in a 5% CO2 atmosphere. […] After treatment, cells were obtained by mechanical disaggregation, resuspended in a solution with Annexin-V-FLUOS and PI, and incubated for 20 min in the dark before flow cytometry analysis.

The test system of data set [2] is SW620 cells. Put plainly: Antiproliferative activity (SRB, 0-8 days). It counts as cell-based, human. The note with it: for viability at 2.5 µM / viability at 40 µM: Homo sapiens, read-out: Cell Viability (%) ± SE; for viability at 2.5 µM: SW620, 2.5 µM; for viability at 40 µM: SW620, 40 µM. The method, then:
For this experiment, the same colorimetric method (SRB) from the evaluation of cell viability was used, although with some modifications. Initially, 2500 cells per well were seeded in 96-well culture plates, and a 24 h adherence period was performed at 37 °C in a 5% CO2 atmosphere. […] For this assay, incubation periods of 0, 2, 4, 6, and 8 days were used, and the fixation, staining, and reading conditions were the same as those previously described for the cytotoxicity assay.

Data set [3] concerns SW620 cells. Put plainly: Mitochondrial membrane potential (DiOC6/PI, flow cytometry). The format is cell-based, human. As to conditions: SW620, treated with IC50, 48 h. On the procedure:
The fluorescent dyes PI and DIOC6 (3,3’-dihexyloxacarbocyanine iodide) were used to observe the depolarization of the mitochondrial membrane as well as possible cell membrane damage. For this method, 250,000 cells/well were initially seeded in 6-well culture plates during a 24 h adherence period at 37 °C in a 5% CO2 atmosphere. […] After treatment, cells were obtained by mechanical disaggregation, stained with DiOC6 and PI, and incubated at room temperature for 30 min in the dark. Ten thousand events were analyzed by flow cytometry with excitation at 488 nm and emission detection with green (530/15 nm) and red (610/20 nm) filters.
In general terms: In flow cytometry, cells or beads pass a laser one at a time.

For a further data set, the system named is CHO-K1 cells. Put plainly: Cell viability, sulforhodamine B (SRB) assay, non-malignant cells. It counts as cell-based, Chinese Hamster. As to conditions: Cricetulus griseus. On the procedure:
as §1, §2

For data set [4], the system named is caspase 3, caspase 7, caspase 8 and p53 in SW620 cells. Put plainly: Apoptotic biomarkers (ELISA). It counts as cell-based, human. The note with it: SW620, treated with IC50, 48 h, vs control. On the procedure:
To provide an approach to the possible molecular mechanisms through which the hybrid compounds induce an effect on the cell lines, different proteins related to the process of death by apoptosis were determined. For this method, 1,000,000 cells were initially seeded per Petri dish, with an adherence period of 24 h at 37 °C in a 5% CO2 atmosphere. […] Later, the consumed medium was discarded, and after the addition of the versene buffer, the cells were obtained by mechanical disaggregation. The cells were then lysed with a cell lysis buffer and centrifuged to obtain the supernatant, which was used to determine the biomarkers of interest by enzyme-linked immunosorbent assays. These ELISA kits were provided by Elabscience Biotechnology Co., Houston, TX, USA [26].
A general note: ELISA stands for enzyme-linked immunosorbent assay.

For data set [5], the system named is SW620 cells. In words: Cell viability, sulforhodamine B (SRB) assay. The format is cell-based, human. On the procedure: as §1, §2
Data set [6] deals with SW620 cells. In words: Cell cycle analysis (PI, flow cytometry). It counts as cell-based, human. The note with it: SW620, treated with IC50 value, 48 h. On the procedure:
The method used for the recognition of cell cycle phases (G0/G1, S, G2/M) was based on staining with a fluorescent dye (propidium iodide—PI), as a direct relationship between fluorescence intensity and DNA content can be established. For this method, 250,000 cells/well were initially seeded in 6-well culture plates with an adherence period of 24 h at 37 °C in a 5% CO2 atmosphere. […] After treatment, cells were obtained by mechanical disaggregation, and the cell pellet was centrifuged and washed with a versene buffer. The cell pellet was fixed with 1.8 mL of cold 70% ethanol and kept at 4 °C overnight. Subsequently, two washes with a versene buffer were performed, and the pellet was resuspended in 300 µL of PBS containing 0.25 mg/mL of RNAsa and 0.1 mg/mL of PI. After a 30 min period of dark incubation, the fluorescence of 10,000 cells was analyzed using a FACS Canto II flow cytometer. The PI signal was analyzed with excitation at 488 nm using a sapphire laser, and fluorescence was detected at 610 nm. The data analysis was performed with FlowJo 10.8.1 software.

For a further data set, the system named is SW480 cells. Put plainly: Cell viability, sulforhodamine B (SRB) assay. The format is cell-based. As to conditions: Homo sapiens. The method, then: as §1, §2
For another data set, the system named is metastatic SW620. Also noted: method as in PMID 33652694. As to conditions: cited from earlier work.
The subject of data set [7] is HT29 colorectal adenocarcinoma cells. Details: method as in PMID 33652694. The note with it: cited from earlier work.
Where [8] appears, read: SW-620, 48 h, 2 days after plating.
[9] abbreviates: SW-620, 96 h, 4 days after plating.
The mark [10] stands for this setting: SW-620, 144 h, 6 days after plating.
Where [11] appears, read: SW-620, 192 h, 8 days after plating.

Turning to `COc1cc(/C=C/C(=O)c2ccc(OCCCCCCn3cc(Cn4cc(F)c(=O)[nH]c4=O)nn3)cc2)ccc1O` [Compound 6e, (E)-5-fluoro-1-((1-(6-(4-(3-(4-hydroxy-3-methoxyphenyl)acryloyl)phenoxy)hexyl)-1H-1,2,3-triazol-4-yl)methyl)pyrimidine-2,4(1H,3H)-dione], the IC50 was 76.9 ± 5.87 µM in the data set on HaCaT cells (24 h); 19.7 ± 1.99 µM with HaCaT cells (48 h); 33.8 ± 2.2 µM with CHO-K1 cells (CHO-K1, 24 h); 34.5 ± 1.37 µM in the data set on CHO-K1 cells (CHO-K1, 48 h); 14.5 ± 1.31 µM in the data set on SW620 cells [5] (48 h); > 100 µM with SW620 cells [5] (Homo sapiens, SW-620, 24 h, 24 h). The IC50 with SW620 cells [5] (Homo sapiens, SW-620, 48 h, 48 h) stood at 19.5 µM; in the data set on SW480 cells (SW480, 24 h) it was 38.8 ± 5.46 µM; in the data set with SW480 cells (SW480, 48 h), 18.2 ± 0.88 µM. Moreover, the “Annexin V/PI quadrant Q4 (viable cells)” value in the data set on SW620 cells [1] was found to be 84.7%. The viability at 2.5 µM in the data set on SW620 cells [2] (setting [8]) stood at 95.6 ± 4.08%; in the data set on SW620 cells [2] (setting [9]) it was 60.65 ± 0.46%; in the data set on SW620 cells [2] (setting [10]), 56.5 ± 2.09%; in the data set with SW620 cells [2] (setting [11]), 48.9 ± 3.46%. Further, the viability at 40 µM with SW620 cells [2] (setting [8]) is 8.77 ± 1.85%; with SW620 cells [2] (setting [9]), 0%; in the data set on SW620 cells [2] (setting [10]), 0%; with SW620 cells [2] (setting [11]), 0%. The “inhibition percentages (decrease in cell viability)” value with SW620 cells [2] (SW620, from 20 µM, day 2) is reported as “higher than 30%”. The “Dioc6 High population (live cells with high membrane polarization)” value in the data set with SW620 cells [3] was 96%. Besides, the “Dioc6 Low population (cells that lose membrane polarization)” value in the data set on SW620 cells [3] was found to be 0%. Further, the “PI+ population (membrane damage or dead cells)” value with SW620 cells [3] was found to be 4.05%. Also, in the data set with SW620 cells [3], the “changes in the mitochondrial membrane potential” value is given as “do not induce significant changes”. Further, the “levels of executioner caspases 3 and 7” value in data set [4] is reported as “Significantly increased levels”. The “Cell cycle distribution, G0/G1” value in the data set with SW620 cells [6] is 20.6%. The “Cell cycle distribution, G2/M” value with SW620 cells [6] was 8.8%. The “Cell cycle distribution, S Phase” value with SW620 cells [6] amounted to 24.5%.
Consider `COc1cccc(/C=C2\CCC/C(=C\c3cccc(OC)c3OC)C2=O)c1OC` [DMCH, (2E,6E)-2,6-Bis(2,3-Dimethoxybenzylidine) Cyclohexanone], for which the “increase of the sub-G0/G1 population in the cell cycle” value (in the data set on metastatic SW620; in data set [7]) was “more than 70%” in each case.

The IC50 is the point on the concentration scale where inhibition reaches its midpoint. Low readings indicate inhibition by little substance, high ones a need for much substance. Broadly, the viability is the share of living cells, or the viability signal relative to a control.

The record behind these values is publication PMC10144058, “New Hybrid Scaffolds Based on 5-FU/Curcumin: Synthesis, Cytotoxic, Antiproliferative and Pro-Apoptotic Effect” (Pharmaceutics, 2023).
